In test [1] the test system is L. reuteri acyl carrier protein dehydratase promoter GFP biosensor. The conditions noted are these: co-cultured with 40 ug/mL calprotectin.
Test [2] concerns L. reuteri ABC transporter promoter GFP biosensor. In words: Metal complementation assay (metal added to sensors co-cultured with calprotectin). The class given is cell-based, Lactobacillus reuteri.
Description: Metal complementation assays—Mixes were similar to the calprotectin induction assays with the addition of zinc (II) sulfate, manganese (II) sulfate, or iron (II) chloride. Concentrations of metals were added in excess of 1×, 10×, and 100× the binding capacity of 40 ug/mL (1.4 uM) calprotectin. In total, 0, 4 uM, 40 uM, and 400 uM of zinc and iron were added and 0, 2 uM, 20 uM, and 200 uM of manganese was added. Slightly higher than equimolar amounts were added to correct for possible pipetting error. Cells were grown for the same amount of time as in the calprotectin induction assays.
Flow cytometry—˜10-40 uL of cells were added to 1 mL of PBS sheath fluid and run through the flow cytometer for a total of 10000 events. Cells were thresholded by forward/side scatter, and.fsc files were analyzed with the FlowCal software, developed by the Jeff Tabor Lab. In short, FlowCal identifies the densest region of cells on the associated scatterplot, and analyzes the fluorescent output of 30% of the cells in this region so as to evaluate a homogenous dataset and remove possible outliers. […] In this case, GFP output is reported as molecules of equivalent fluorophores (MEF), and was evaluated on the FL1 channel.
The subject of test [3] is E. coli Nissle enterobactin synthase promoter GFP biosensor.
Test [4] relates to E. coli Nissle L36/L31 ribosomal accessory protein promoter GFP biosensor. The conditions noted are these: sensors co-cultured with calprotectin.
In test [5] the test system is L. reuteri acyl carrier protein dehydratase promoter GFP biosensor. In words: Induction of promoter-GFP biosensor, GFP by flow cytometry. The conditions noted are these: co-cultured with TPEN vs uninduced sensor. In kind it is cell-based, Lactobacillus reuteri. As for the experimental part:
All constructs were assembled via the Gibson Reaction (NEBiosciences).
All flow runs were performed in 96 well plates.
TPEN Induction—TPEN, a synthetic zinc chelator, induction assays were performed as calprotectin induction, with TPEN replacing calprotectin. Growth condition were also identical. Media ratios differed. In the TPEN studies, 180 uL of media was used with 20 uL cells and 2 uL of TPEN in absolute ethanol.

In test [6] the test system is E. coli Nissle L36/L31 ribosomal accessory protein promoter (ykgMO) GFP biosensor. The description is as above. In kind it is cell-based, Escherichia coli. The source says:
(§1) Initial Data. […] Sequences were obtained via Illumina NextSeq and mapped against E. coli Nissle 1917 reference genome.
(§2) Initial test constructs consisted of the intergenic promoter regions for the following genes: E. coli Nissle—sulA, entCE (enterobactin synthase operon), ykgMO (paralog for L36/L31 ribosomal accessory protein), ABC Transporter (WP_000977398.1); L. reuteri—ABC Transporter operon (EGC15836.1), Acyl carrier protein dehydratase (EGC15031.1), argininosuccinate lyase (EGC15288.1). Each promoter region was cloned directly upstream of a green fluorescent protein cassette. For L. reuteri, the eGFP cassette was used while the sGFP cassette was used for E. coli. All constructs were assembled via the Gibson Reaction (NEBiosciences).

Test [7] relates to E. coli Nissle enterobactin synthase promoter GFP biosensor. The test is described as above. In kind it is cell-based, Escherichia coli.
Description: as §1, §2

Test [8] deals with Lactobacillus reuteri ABC transporter promoter GFP sensor. The conditions noted are these: 40 ug/mL calprotectin vs uninduced sensor.
Description: as §2

Test [9] has as its system Escherichia coli Nissle 1917. In words: Minimum inhibitory concentration (MIC) assay, overnight growth, OD600. In kind it is cell-based. The conditions noted are these: E. coli Nissle. How it is done: (§3) Minimum inhibitory concentration (MIC) assay—Escherichia coli Nissle 1917 and Lactobacillus reuteri PTA 6475 were used as vectors for biosensor construction. For both strains, bacteria was grown overnight in media (MRS broth for L. reuteri; LB broth for E. coli). From the overnight culture, 10^4 bacterial cells in 38 uL media (LDM4 for L. reuteri; LB broth for E. coli) were seeded into a 96 well-plate. 62 uL of calprotectin in buffer (20 mM Tris (pH 7.5), 100 mM NaCl, 10 mM beta-mercaptoethanol, 3 mM CaCl2) was added in 2-fold dilutions. Recombinant human calprotectin was supplied by Dr. Walter Chazin of Vanderbilt University. Bacteria was allowed to grow overnight, and OD600 values were taken the following morning.
(§4) RNA Isolation—Sub-inhibitory concentrations of calprotectin were used for the calprotectin induction. […] Cells were grown overnight, and then back-diluted 1:100 into 5 mL of media (LDM4 for L. reuteri; LB Broth for E. coli). Cells were grown up to log phase, and then the sub-inhibitory amount of calprotectin was added to the tube in calprotectin buffer. Growth continued for 30 total minutes in the presence of the calprotectin, and then transcription was frozen by addition of ice cold methanol for L. reuteri and ice-cold ethanol for E. coli Nissle. Cells were collected via centrifugation, and then RNA was isolated using the QIAgen RNEasy kit. Slight modifications were included. For L. reuteri, mechanical cell-wall disruption was used via bead-beating. For E. coli, lysozyme/proteinase K was used to disrupt the gram-negative cell wall. RNA was quantified and tested for purity using a Nanodrop.
(§5) Both prospective vector strains (Lactobacillus reuteri and Escherichia coli Nissle) were grown overnight in the presence of 2-fold dilutions of calprotectin in order to deduce minimum inhibitory concentrations of calprotectin on the microbes.

Test [10] has as its system Lactobacillus reuteri PTA 6475. The description is as above. The class given is cell-based. The conditions noted are these: L. reuteri. As for the experimental part:
as §3, §4, §5

Setting [11] is: co-cultured with 40 ug/mL calprotectin.
Setting [12] is: co-cultured with 1.5 uM TPEN vs media only.
[13] abbreviates: 40 ug/mL calprotectin vs un-induced.
Where [14] appears, read: overnight growth, 2-fold dilutions.

Counter-ions that a name gives are not always drawn.

With `[Zn+2]` [zinc, zinc (II) sulfate], the “zinc concentration sufficient to totally abolish promoter activity” value in [1], in test [2] (setting [11]) and in [3] (setting [11]) was 4 µM each time. Further, the “effect of added zinc on calprotectin-induced increase in GFP expression” value in test [3] (sensors co-cultured with calprotectin) and in test [4] was “abolishes the calprotectin-induced increase in GFP expression” in each case.
For the molecule `[Cl][Fe][Cl]` [iron, iron (II) chloride], in test [2] (× the binding capacity of 40 ug/mL calprotectin, possibly a cell survival issue), the “iron excess required to turn off promoter activity” value is 100 ×.
As to `c1ccc(CN(CCN(Cc2ccccn2)Cc2ccccn2)Cc2ccccn2)nc1` [TPEN, N,N,N′,N′-tetrakis(2-pyridinylmethyl)-1,2-ethanediamine], the “fold increase in GFP expression” value in test [5] was found to be 2.5 fold; in test [6] (setting [12]), 4.5 fold; in [7] (setting [12]) it was 5.6 fold.
For the molecule `O=S(=O)([O-])[O-].[Mn+2]` [manganese, manganese (II) sulfate], in test [2] (manganese at 100× binding capacity of 40 ug/mL calprotectin), the “effect of added manganese on sensor activity” value is “did not fully ablate sensor activity”.

B1: calprotectin: neutrophil-source antimicrobial peptide heterodimer that sequesters zinc, manganese and iron; recombinant human, supplied by Dr. Walter Chazin (protein, UniProt P05109 1-93; P06702 1-114, looked up)
Protein S100-A8: MLTELEKALNSIIDVYHKYSLIKGNFHAVYRDDLKKLLETECPQYIRKKGADVWFKELDINTDGAVNFQEFLILVIKMGVAAHKKSHEESHKE
Protein S100-A9: MTCKMSQLERNIETIINTFHQYSVKLGHPDTLNQGEFKELVRKDLQNFLKKENKNEKVIEHIMEDLDTNADKQLSFEEFIMLMARLTWASHEKMHEGDEGPGHHHKPGLGEGTP
Regarding B1, the “fold increase in GFP expression” value in test [8] came out at 4.93 fold; in test [6] (setting [13]) it was 2.6 fold; in test [7] (setting [13]) it was 1.8 fold. The “highest concentration that did not inhibit overnight growth (sub-inhibitory concentration)” value came out at 125 µg/mL in test [9] and 15.625 µg/mL in test [10]. The “minimum inhibitory concentration (growth inhibited at this concentration and above)” value stood at 250 µg/mL in test [9] (setting [14]) and 31.25 µg/mL in test [10] (setting [14]).
